Consider 23 compounds from patent publication US12624023B2, “Sulfonylurea derivatives and uses thereof” (NodThera Limited, priority 2019, dated 2026).

For assay [1], the system named is IL-1β release upon NLRP3 activation in peripheral blood mononuclear cells (PBMC). Put plainly: PBMC IC50 determination assay (IL-1β release, LPS priming + ATP stimulation, HTRF). It is filed as cell-based. The settings on record: PBMC from buffy coats; LPS 1 μg/ml 3 h, compound 30 min, ATP 5 mM 1 h; IL-1β by HTRF. As for the experimental part: The compounds of the present disclosure were tested for their inhibitory activity against IL-1β release upon NLRP3 activation in peripheral blood mononuclear cells (PBMC).
PBMC were isolated from buffy coats by density gradient centrifugation on Histopaque-1077 (Sigma, cat no. 10771). Isolated cells were seeded into the wells (280,000 cells/well) of a 96-well plate and incubated for 3 h with lipopolysaccharide (LPS, 1 μg/ml diluted 1000× from a 1 mg/ml stock solution). The compounds of the present disclosure were added (a single compound per well) and the cells were incubated for 30 min. Next, the cells were stimulated with ATP (5 mM final concentration diluted 20× from a 100 mM stock solution) for 1 h and the cell culture media from the wells were collected for further analysis.
The release of IL-1β into the media was determined by quantitative detection of IL-1β in the media using HTRF®, CisBio cat. No. 62HIL1BPEH. Briefly, cell culture supernatant were dispensed directly into the assay plate containing antibodies labelled with the HTRF® donor and acceptor. A microplate spectrophotometer (BMG) was used to detect signals at 655 nm and 620 nm. The detection range of IL-1β HTRF® was […].
In general terms: TR-FRET usually uses a lanthanide donor and a delayed reading to cut background.

Assay [2] has as its system IL-1β release upon NLRP3 activation in human whole blood. As to the kind of experiment: Whole blood (WB) assay (IL-1β release, LPS priming + ATP stimulation, HTRF). It is filed as cell-based. The settings on record: heparin, diluted 9:5 with media, LPS 1 μg/ml 3 h, compound 30 min, ATP 5 mM 1 h, IL-1β by HTRF. The method, then:
The compounds of the present disclosure were tested for their inhibitory activity against IL-1β release upon NLRP3 activation in human whole blood.
Whole blood was drawn from single healthy donors and treated with sodium heparin anticoagulant. Blood was diluted with cell culture media at a 9:5 ratio, seeded in a 96-well plate and incubated for 3 h with lipopolysaccharide (LPS, 1 μg/ml final concentration diluted 1000× from a 1 mg/ml stock solution). The compounds of the present disclosure were added (a single compound concentration per well) and the blood was incubated for 30 min. Next, the blood was stimulated with ATP (5 mM final concentration diluted 20× from a 100 mM stock solution) for 1 h and the cell culture media from the wells were collected for further analysis.
The release of IL-1β into the media was determined by quantitative detection of IL-1β in the media using HTRF®, CisBio cat. No. 62HIL1BPEH. Briefly, cell culture supernatant were diluted as appropriate to bring IL-1β levels within the HTRF® detection range ([…]) and subsequently dispensed into the assay plate containing antibodies labelled with the HTRF® donor and acceptor. A microplate spectrophotometer (BMG) was used to detect signals at 655 nm and 620 nm.

What is called IC50 is the concentration that gives 50% inhibition. Consider `Cc1csc(C)c1NC(=O)NS(=O)(=O)N(c1cnn(C)c1)C1CCOCC1` [Compound 1, 3-(2,4-Dimethylthiophen-3-yl)-1-[(1-methyl-1H-pyrazol-4-yl)(oxan-4-yl)-sulfamoyl]urea], for which the results for the IC50 in assay [1] and in assay [2] were 1000 to 5000 nM and 3000 to 10000 nM, respectively.

With `Cc1cc(NC(=O)NS(=O)(=O)N(c2cnn(C)c2)C2CCOCC2)c(C)s1` [Compound 2, 3-(2,5-Dimethylthiophen-3-yl)-1-[(1-methyl-1H-pyrazol-4-yl)(oxan-4-yl)sulfamoyl]urea], the values for the IC50 in assay [1] and in assay [2] were 500 to 1000 nM and 3000 to 10000 nM, respectively.

For `Cc1sc2ccccc2c1NC(=O)NS(=O)(=O)N(c1cnn(C)c1)C1CCOCC1` [Compound 3, 3-(2-Methyl-1-benzothiophen-3-yl)-1-[(1-methyl-1H-pyrazol-4-yl)(oxan-4-yl)sulfamoyl]urea], the IC50 is 1000 to 5000 nM in assay [1] and more than 20000 nM in assay [2].

For `CCc1cc(NC(=O)NS(=O)(=O)N(c2cnn(C)c2)C2CCOCC2)c(CC)s1` [Compound 4, 3-(2,5-Diethylthiophen-3-yl)-1-[(1-methyl-1H-pyrazol-4-yl)(oxan-4-yl)sulfamoyl]urea], the IC50 in assay [1] lay in the range of 1000 to 5000 nM; in assay [2], 10000 to 20000 nM.

Regarding `Cn1cc(N(C2CCOCC2)S(=O)(=O)NC(=O)Nc2cc(Cl)sc2Cl)cn1` [Compound 5, 3-(2,5-Dichlorothiophen-3-yl)-1-[(1-methyl-1H-pyrazol-4-yl)(oxan-4-yl)sulfamoyl]urea], the IC50 was 5000 to 10000 nM in assay [1] and more than 20000 nM in assay [2].

`CC(C)c1cc(NC(=O)NS(=O)(=O)N(c2cnn(C)c2)C2CCOCC2)c(C(C)C)s1` [Compound 6, 3-[2,5-Bis(propan-2-yl)thiophen-3-yl]-1-[(1-methyl-1H-pyrazol-4-yl)(oxan-4-yl)sulfamoyl]urea]: the values for the IC50 in assay [1] and in assay [2] were 500 to 1000 nM and more than 20000 nM, respectively.

For the compound `CCc1csc(CC)c1NC(=O)NS(=O)(=O)N(c1cnn(C)c1)C1CCOCC1` [Compound 7, 3-(2,4-Diethylthiophen-3-yl)-1-[(1-methyl-1H-pyrazol-4-yl)(oxan-4-yl)sulfamoyl]urea], the results for the IC50 in assay [1] and in assay [2] were 1000 to 5000 nM and 10000 to 20000 nM, respectively.

For `Cc1cc(NC(=O)NS(=O)(=O)N(c2cnn(C)c2)C2CCCN(C)C2)c(C)s1` (stereo not drawn) [Compound 8, 3-(2,5-Dimethylthiophen-3-yl)-1-[(1-methyl-1H-pyrazol-4-yl)(1-methyl-piperidin-3-yl)sulfamoyl]urea], the IC50 in assay [1] lay in the range of 1000 to 5000 nM; in assay [2], 1000 to 3000 nM.

`Cc1csc(C)c1NC(=O)NS(=O)(=O)N(c1cnn(C)c1)C1CCCN(C)C1` (stereo not drawn) [Compound 9, 3-(2,4-Dimethylthiophen-3-yl)-1-[(1-methyl-1H-pyrazol-4-yl)(1-methyl-piperidin-3-yl)sulfamoyl]urea]: the figures for the half-inhibitory concentration (IC50) in assay [1] and in assay [2] were 1000 to 5000 nM and 3000 to 10000 nM, respectively.

For `Cc1cc(C)c(NC(=O)NS(=O)(=O)N(c2cnn(C)c2)C2CCCN(C)C2)s1` (stereo not drawn) [Compound 10, 3-(3,5-Dimethylthiophen-2-yl)-1-[(1-methyl-1H-pyrazol-4-yl)(1-methyl-piperidin-3-yl)sulfamoyl]urea], the IC50 in assay [1] fell in the range of 1000 to 5000 nM; in assay [2], 10000 to 20000 nM.

As to `CC(C)c1cc(NC(=O)NS(=O)(=O)N(c2cnn(C)c2)C2CCCN(C)C2)c(C(C)C)s1` (stereo not drawn) [Compound 11, 3-[2,5-Bis(propan-2-yl)thiophen-3-yl]-1-[(1-methyl-1H-pyrazol-4-yl)(1-methyl-piperidin-3-yl)sulfamoyl]urea], the IC50 in assay [1] is less than 100 nM; in assay [2], less than 1000 nM.

With `Cc1sc2ccccc2c1NC(=O)NS(=O)(=O)N(c1cnn(C)c1)C1CCCN(C)C1` (stereo not drawn) [Compound 12, 3-(2-Methyl-1-benzothiophen-3-yl)-1-[(1-methyl-1H-pyrazol-4-yl)(1-methyl-piperidin-3-yl)sulfamoyl]urea], the IC50 lay within 500 to 1000 nM in assay [1] and 1000 to 3000 nM in assay [2].

`CCc1cc(NC(=O)NS(=O)(=O)N(c2cnn(C)c2)C2CCCN(C)C2)c(CC)s1` (stereo not drawn) [Compound 13, 3-(2,5-Diethylthiophen-3-yl)-1-[(1-methyl-1H-pyrazol-4-yl)(1-methylpiperidin-3-yl)sulfamoyl]urea]: the IC50 in assay [1] was less than 100 nM; in assay [2] it was less than 1000 nM.

As to `CCc1csc(CC)c1NC(=O)NS(=O)(=O)N(c1cnn(C)c1)C1CCCN(C)C1` (stereo not drawn) [Compound 14, 3-(2,4-Diethylthiophen-3-yl)-1-[(1-methyl-1H-pyrazol-4-yl)(1-methylpiperidin-3-yl)sulfamoyl]urea], the IC50 was less than 100 nM in assay [1] and 1000 to 3000 nM in assay [2].

Consider `Cc1sc(C)c(NC(=O)NS(=O)(=O)N(c2cnn(C)c2)C2CCCN(C)C2)c1C` (stereo not drawn) [Compound 15, 1-[(1-Methyl-1H-pyrazol-4-yl)(1-methylpiperidin-3-yl)sulfamoyl]-3-(2,4,5-trimethylthiophen-3-yl)urea], for which the IC50 was 500 to 1000 nM in assay [1] and more than 20000 nM in assay [2].

Turning to `CC(C)c1csc(C(C)C)c1NC(=O)NS(=O)(=O)N(c1cnn(C)c1)C1CCCN(C)C1` (stereo not drawn) [Compound 16, 3-[2,4-Bis(propan-2-yl)thiophen-3-yl]-1-[(1-methyl-1H-pyrazol-4-yl)(1-methyl-piperidin-3-yl)sulfamoyl]urea], the values for the IC50 in assay [1] and in assay [2] were 100 to 500 nM and 1000 to 3000 nM, respectively.

Turning to `Cc1csc(NC(=O)NS(=O)(=O)N(c2cnn(C)c2)C2CCCN(C)C2)c1C` (stereo not drawn) [Compound 17, 3-(3,4-Dimethylthiophen-2-yl)-1-[(1-methyl-1H-pyrazol-4-yl)(1-methyl-piperidin-3-yl)sulfamoyl]urea], the half-maximal inhibitory concentration (IC50) in assay [1] was in the range of 5000 to 10000 nM.

With `CCc1nc(NC(=O)NS(=O)(=O)N(c2cnn(C)c2)C2CCCN(C)C2)c(CC)s1` (stereo not drawn) [Compound 31, 3-(2,5-Diethyl-1,3-thiazol-4-yl)-1-[(1-methyl-1H-pyrazol-4-yl)(1-methyl-piperidin-3-yl)sulfamoyl]urea], the IC50 in assay [1] was in the range of 5000 to 10000 nM.

With `CCc1cc(NC(=O)NS(=O)(=O)N(C[C@@H]2C[C@@H](F)CN2C)c2cnn(C(C)C)c2)c(CC)o1` [Compound 63, 3-(2,5-Diethylfuran-3-yl)-1-({[(2S,4R)-4-fluoro-1-methylpyrrolidin-2-yl]methyl}[1-(propan-2-yl)-1H-pyrazol-4-yl]sulfamoyl)urea], the IC50 in assay [1] lay in the range of 1000 to 5000 nM.

Take `CCc1cc(NC(=O)NS(=O)(=O)N(C2CCOCC2)C2CCCN(C)C2)c(CC)s1` (stereo not drawn) [Compound 68, 3-(2,5-Diethylthiophen-3-yl)-1-[(1-methylpiperidin-3-yl)(oxan-4-yl)sulfamoyl]-urea]: the IC50 in assay [1] fell in the range of 5000 to 10000 nM.

Take `CCc1cc(NC(=O)NS(=O)(=O)N(CCN(C)C)c2cnn(C)c2)c(CC)o1` [Compound 72, 3-(2,5-Diethylfuran-3-yl)-1-{[2-(dimethylamino)ethyl](1-methyl-1H-pyrazol-4-yl)sulfamoyl}urea]: the IC50 in assay [1] lay in the range of 1000 to 5000 nM.

For `CCc1cc(NC(=O)NS(=O)(=O)N(CC2CCCO2)c2cnn(C)c2)c(CC)o1` (stereo not drawn) [Compound 74, 1-(2,5-Diethylfuran-3-yl)-3-[(1-methyl-1H-pyrazol-4-yl)[(oxolan-2-yl)methyl]-sulfamoyl]urea], in assay [1], the 50% inhibitory concentration (IC50) fell in the range of 1000 to 5000 nM.

Consider `Cc1cc(NC(=O)NS(=O)(=O)N(c2cnn(C3CC3)c2)[C@H]2CCCN(C)C2)c(C2CC2)s1` [Compound 105, 1-[(1-Cyclopropyl-1H-pyrazol-4-yl)[(3S)-1-methylpiperidin-3-yl]sulfamoyl]-3-(2-cyclopropyl-5-methylthiophen-3-yl)urea], for which the IC50 in assay [1] was in the range of 100 to 500 nM.
